Measured values from the NIST ThermoML archive (doi:10.1016/j.fluid.2006.07.007).

Conditions: Liquid, Ebulliometric method (Recirculating still)

CCO [ethanol]
Conditions | vapor or sublimation pressure [kPa]
292.33 K | 5.593
303.83 K | 10.86
311.14 K | 16.15
317.9 K | 22.84
323.09 K | 29.41
326.8 K | 35.11
330.56 K | 41.76
333.94 K | 48.61
337.18 K | 56.06
339.97 K | 63.2
342.3 K | 69.73
